In patent US5410068A, “Succinimidyl trityl compounds and a process for preparing same” (PerSeptive Biosystems, Inc., priority 1989, dated 1995):
{Biotin} = biotin attached to 5'-amino group

Test system: streptavidin agarose
Assay: binding of biotin labeled oligonucleotides and amplified DNA to streptavidin agarose support
Details: purified oligonucleotide
Procedure: The major component of each sample was isolated by the method described in Example 12.
Aliquots of the reaction mixture taken at 5 minutes, 55 minutes and 120 minutes were analyzed by reversed-phase HPLC. The analysis indicated complete disappearance of the major component of the crude mixture in favor of a more hydrophobic product within two hours.
Streptavidin agarose (Gibco BRL, Bethesda Md.) was treated before use. The agarose was washed three times with 200 μl of 150 mM NaCl, 10 mM NaH2 PO4 pH 7.2 containing 0.05% NaN3 and 10% acetonitrile. A 25 μl aliquot of 0.5M NaCl in 80% aqueous acetic acid containing 0.5% (w/v) aminoethanethiol hydrochloride was then washed through the resin and then 100 μl of this solution was allowed to react with the streptavidin agarose for 1 hr. The resin was again washed three times with 100 μl of 150 mM NaCl, 10 mM NaH2 PO4 pH 7.2 containing .05% NaN3 and 10% acetonitrile.
Following amplication, a portion of each PCR reaction (50 μl) was incubated with pretreated (see Example 16) streptavidin agarose (100 μl) for 30 minutes. At the end of the incubation, the supernatant was removed and the streptavidin agarose was washed twice with 100 μl of 150 mM NaCl, 10 mM NaH2 PO4 pH 7.2 containing 0.05% NaN3 and 10% acetonitrile (hereafter called streptavidin buffer).The washings were combined with the supernatant. […]

new product: biotinylated 5'-amino group containing partially protected 15-mer 5'-TCCCAGTCACGACGT-3' (treated with 1,6-diaminohexane) (DNA, 5' {Biotin}, backbone and methylation of C not given here; biotin via aminohexyl, partially protected)
binding to streptavidin agarose: shown to bind to streptavidin agarose
